Source: patent publication US9618507B2, “Methods of treating rheumatoid arthritis” (Betanien Hospital, priority 2014, dated 2017)
Marks after values point to notes of the source that are not given here. Where a SMILES comes first, the peptide text is derived from it. [ ]: non-standard residue; d: D form. dPhe(4-Cl) = N[C@H](Cc1ccc(Cl)cc1)C(=O)O; d2Nal = N[C@H](Cc1ccc2ccccc2c1)C(=O)O; dCit = NC(=O)NCCC[C@@H](N)C(=O)O; d3Pal = N[C@H](Cc1cccnc1)C(=O)O

How the values were obtained:
RA patients [1] = experiment: Example 1: adverse events; assay type: in vivo, human
Method: (§1) Ethical committee approval was obtained. […] Safety and efficacy visits, with blood sampling, were between 0730 and 0930 h on days 1 (baseline), 2, 3, 4, 5 (visit 5a), 10, and 15. There was an additional visit (visit 5b) between 1930 and 2130 h when maximum GnRH suppression was anticipated.
(§2) Predefined secondary end-points included the baseline adjusted between-group difference inTNF-α, ACR20/50/70 responses, European League Against Rheumatism (EULAR) responses, DAS28-CRP <2.6 and ≦3.2, and adverse events.
(§3) The Newcombe hybrid score interval was used to estimate 95% confidence intervals (CI) for the difference between proportions (Fagerland M W, et al., Stat Methods Med Res 2011). No adjustments for multiple analyses were made, owing to the highly correlated variables. All clinical, biochemical, and safety data were analyzed by an intention-to-treat analysis. Only predefined endpoints are presented. The intention-to-treat population was predefined in the protocol as all randomized patients who received any injections of study drug. Missing values were <1% and could, as predefined, be imputed with the last observation carried forward. The assumptions of normality needed for analyses were approximately valid. The Spearman rank correlation coefficient (Spearman's rho) was used to estimate the association between pairs of continuous variables.

CRP, ESR = conditions: all patients
Method: Ethical committee approval was obtained. A blinded independent committee, the Oslo University Hospital Data Monitoring Committee, regularly reviewed source documents against case record forms. Safety and efficacy visits, with blood sampling, were between 0730 and 0930 h on days 1 (baseline), 2, 3, 4, 5 (visit 5a), 10, and 15. There was an additional visit (visit 5b) between 1930 and 2130 h when maximum GnRH suppression was anticipated. Using computer-generated allocation, patients were randomly assigned 1:1 to cetrorelix (5 mg/day s.c. on days 1 and 2, 3 mg/day on days 3-5) or corresponding volumes of placebo. The cetrorelix doses were chosen to achieve rapid reductions in GnRH, LH, a surrogate marker for GnRH, and FSH. TNF-α was measured using multiplex technology with a high sensitivity (0.5 pg/mL) assay.
The predefined primary end-point was the baseline adjusted between-group difference in DAS28-CRP by visit 5b. Predefined secondary end-points included the baseline adjusted between-group difference inTNF-α, ACR20/50/70 responses, European League Against Rheumatism (EULAR) responses, DAS28-CRP <2.6 and ≦3.2, and adverse events. Continuous end-points were assessed with regression using day 5 as the response variable, and treatment and baseline measurement as covariates (ANCOVA). No adjustments for multiple analyses were made because of the highly correlated variables. Statistical tests were twosided (α ¼0.05) using Stat12/StatXact9, and performed by an offsite statistician who received the locked database from the blinded investigators, and the allocation key from the offsite central office.

RA patients [2] = experiment: Example 1: randomized, double-blind, placebo-controlled study, disease activity (DAS28-CRP, ACR responses, core set measures); assay type: in vivo, human
Method: In this randomized, double-blind, placebo-controlled, single-centre study, males and females aged ≧18 years with RA according to the 1987 revised American College of Rheumatology (ACR) criteria, and with a 28-joint Disease Activity Score based on C-reactive protein (DAS28-CRP)>3.2 were enrolled.
as §1, §2
Menstruating women could only enter the study in the early follicular phase of their menstrual cycle. The concomitant use of stable doses of disease-modifying anti-rheumatic drugs (DMARDs) for at least 8 weeks, stable prednisolone ≦7.5 mg daily for at least 4 weeks, and stable non-steroidal anti-inflammatory drugs (NSAIDs) for at least 2 weeks was allowed if these doses were continued throughout the study. Key exclusion criteria were as follows: pregnancy or breastfeeding females; corticosteroid injections within the trial or 4 weeks prior to screening; biological agents were not permitted during the trial or within 4 weeks prior to inclusion in the trial (with the exception of infliximab or adalimumab which were not permitted within 3 months prior to inclusion in the trial; and rituximab which was not permitted within 6 months prior to inclusion in the trial). A history of hormone-dependent cancers ever or non-hormone-dependent cancers within 5 years prior to screening: infections requiring intravenous antibiotic treatment within 30 days, or oral antibiotics within 14 days prior to enrolment; significant renal or hepatic impairment; and any treatment with hormone replacement therapy or oral contraception were also exclusion criteria.
as §3

interleukin-10 = experiment: Example 2: serum cytokine, multiplex high-sensitivity assay, interleukin-10; assay type: in vivo, human; conditions: high gonadotropin patients
Method: The protocol-specified primary and secondary intention-to-treat endpoints of the original AGRA trial were analyzed in these post hoc analyses. The primary endpoint was the baseline-adjusted between-group difference in DAS28-CRP (Wells et al., supra) by day 5b. Secondary endpoints included the baseline-adjusted between-group difference in cytokines, proportions of patients achieving at least a 20%, 50%, and 70% improvement on the ACR scale (Felson D T, et al., Arthritis Rheum 1995; 38:727-35), categorical DAS28-CRP (European League Against […] [EULAR]) responses (Wells et al., supra; van Gestel A M, et al., Arthritis Rheum 1996; 39:34-40), DAS28-CRP≦3.2 (Wells et al., supra), DAS28-CRP<2.6 (Wells et al., supra), and the incidence of adverse events. Protocol-specified DAS28 outcomes were preferentially CRP-based rather than erythrocyte sedimentation rate (ESR)-based, as CRP usually changes before ESR. […] Multiplex technology (Luminex Inc., Austin, Tex.) measured these serum cytokines using high-sensitivity assays (sensitivities <0.5 pg/mL, allowing the detection of very low concentrations of cytokines) and identical lots of critical reagent of negligible cross-reactivity <2%, according to manufacturers' instructions (Bio-Rad, Hercules, Calif.). […] To enable intention-to-treat analyses with all patients N=53, non-detectable values were set at the lower limit of detection for cytokines, as is common for CRP values.
The original power calculation is previously reported (Kass A S, et al., Scand J Rheumatol Epub ahead of print 1 Nov. 2013). Baseline-adjusted between-group differences for all continuous endpoints were assessed with the use of analysis-of-covariance using outcome measurements at predefined time points as response variables, and treatment and baseline measurements as covariates. Dichotomous endpoints were compared with the Pearson chi-square test or Suissa-Shuster exact unconditional test, depending on expected-value distribution (Lydersen S, et al., Stat Med 2009; 28:1159-75). No adjustments for multiple analyses were made, owing to highly correlated endpoints. Due to skewed distributions, between-group changes of natural log-transformed cytokine levels from baseline were compared.

## CC(=O)N[C@H](Cc1ccc2ccccc2c1)C(=O)N[C@H](Cc1ccc(Cl)cc1)C(=O)N[C@H](Cc1cccnc1)C(=O)N[C@@H](CO)C(=O)N[C@@H](Cc1ccc(O)cc1)C(=O)N[C@H](CCCNC(N)=O)C(=O)N[C@@H](CC(C)C)C(=O)N[C@@H](CCCNC(=N)N)C(=O)N1CCC[C@H]1C(=O)N[C@H](C)C(N)=O [cetrorelix] (Ac-[d2Nal][dPhe(4-Cl)][d3Pal]SY[dCit]LRP[dA]-NH2)
RA patients [1]; N = 48
  Adverse effects: Headache: 2 (4.2) n (percent)
  Adverse effects: Hot flushes: 2 (4.2) n (percent)
  Adverse effects: Injection site discomfort: 3 (6.3) n (percent)
  Adverse effects: Menstrual spotting: 2 (4.2) n (percent)
  Adverse effects: Nasopharyngitis: 1 (2.1) n (percent)
  Adverse effects: Nausea: 0 n (percent)
  Adverse effects: Toothache: 0 n (percent)
  Adverse effects: Urinary tract infection: 1 (2.1) n (percent)
RA patients [1]; all patients
  serious side-effects: no serious side-effects were observed
CRP, ESR; by day 15
  CRP levels after withdrawal of treatment: remained lowered
CRP, ESR; day 5, p 0.060
  CRP reduction compared to placebo: Non-significant reductions
CRP, ESR; day 15, p 0.051
  ESR reduction compared to placebo: Non-significant reductions
RA patients [2]; all patients, baseline adjusted, day 5, 95% CI −0.04 to 0.57, p 0.091
  DAS28-CRP between-group difference vs placebo: 0.26
RA patients [2]; all patients, by day 5, placebo 0%
  patients achieving DAS28-CRP<2.6: 13%
RA patients [2]; all patients, by day 5, placebo 18%
  patients achieving ACR20 responses: 40%
RA patients [2]; all patients, cetrorelix n=48, 5 mg/day s.c. days 1-2, 3 mg/day days 3-5, day 5
  DAS28-CRP reduction by day 5: 0.82
RA patients [2]; all patients, day 5, FIG. 1A
  ACR50/70 responses compared with placebo: More patients reached ACR50/70 responses
RA patients [2]; all patients, except physician global assessment
  core set measures of disease activity compared with placebo: non-significant greater improvements
RA patients [2]; cetrorelix group, p 0.40
  DAS28-CRP reduction, prednisolone users (n 24) vs non-users (n 24): did not differ
interleukin-10; N = 27, mean ± SD
  IL-10 level, Final Day 15: −0.31 ± 2.1 log pg/mL
interleukin-10; N = 27, placebo +0.13
  IL-10 Change from baseline by day 15: −0.40 log pg/mL
interleukin-10; by day 15, P=0.020
  interleukin-10 change compared with placebo: significantly decreased
interleukin-10; day 15, 95% CI (0.10, 1.08), P < 0.05
  IL-10 Baseline-Adjusted Between-Group Difference: 0.59‡ log pg/mL
